From PubChem BioAssay AID330 (DTP/NCI, 2004)
Where “and” joins values, the source holds several entries; their conditions need not be identical. Equal entries are not always repeated. Toxic doses and inconclusive results are not listed.

Test system: P388 leukemia ip, CD2F1 mice, survival T/C
Test: NCI In Vivo Anticancer Drug Screen. Data for tumor model P388 Leukemia (intraperitoneal) in CD2F1 (CDF1) mice
Conditions: endpoint: median survival time, higher = longer survival
In short: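 Mice carrying the transplanted tumor received test compound or vehicle. Survival was recorded in each group, and the value is the treated-group measurement divided by that of the vehicle-treated control group.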

[1] = dose: 50.0 mg/kg/injection, schedule: Q01DX005 (ip), vehicle: saline with Tween-80
[2] = dose: 100.0 mg/kg/injection, schedule: Q01DX005 (ip), vehicle: saline with Tween-80
[3] = dose: 200.0 mg/kg/injection, schedule: Q01DX005 (ip), vehicle: saline with Tween-80
[4] = dose: 60.0 mg/kg/injection, schedule: Q01DX005 (ip), vehicle: saline with Tween-80
[5] = dose: 120.0 mg/kg/injection, schedule: Q01DX005 (ip), vehicle: saline with Tween-80
[6] = dose: 240.0 mg/kg/injection, schedule: Q01DX005 (ip), vehicle: saline with Tween-80
[7] = dose: 50.0 mg/kg/injection, schedule: Q01DX005 (ip), vehicle: Klucel (hydroxypropylcellulose) (HPC)
[8] = dose: 100.0 mg/kg/injection, schedule: Q01DX005 (ip), vehicle: Klucel (hydroxypropylcellulose) (HPC)
[9] = dose: 200.0 mg/kg/injection, schedule: Q01DX005 (ip), vehicle: Klucel (hydroxypropylcellulose) (HPC)
[10] = dose: 50.0 mg/kg/injection, schedule: Q01DX009 (ip), vehicle: saline with Tween-80
[11] = dose: 100.0 mg/kg/injection, schedule: Q01DX009 (ip), vehicle: saline with Tween-80
[12] = dose: 200.0 mg/kg/injection, schedule: Q01DX009 (ip), vehicle: saline with Tween-80
[13] = dose: 25.0 mg/kg/injection, schedule: Q01DX009 (ip), vehicle: saline
[14] = dose: 50.0 mg/kg/injection, schedule: Q01DX009 (ip), vehicle: saline
[15] = dose: 100.0 mg/kg/injection, schedule: Q01DX009 (ip), vehicle: saline
[16] = dose: 25.0 mg/kg/injection, schedule: Q01DX009 (ip), vehicle: saline with Tween-80

For `COc1cc([N+](=O)[O-])c(OC)cc1Nc1ccccc1C(=O)O`, the T/C (dose: 60.0 mg/kg/injection, schedule: Q01DX005 (ip), vehicle: Klucel + Tween-80) was 89 % of control and the T/C (dose: 120.0 mg/kg/injection, schedule: Q01DX005 (ip), vehicle: Klucel + Tween-80) was 90 % of control.

`C=Cc1cc(=O)oc2cc(OC)ccc12` was tested, and the T/C (dose: 12.5 mg/kg/injection, schedule: Q01DX005 (ip), vehicle: saline with Tween-80) was 106 % of control and 94 % of control, the T/C (dose: 25.0 mg/kg/injection, schedule: Q01DX005 (ip), vehicle: saline with Tween-80) was 108 % of control and 95 % of control and the T/C [1] was 105 % of control and 115 % of control and 121 % of control. The T/C [2] was 105 % of control.

With `CC(C)=CCC/C(C)=C/CC/C(C)=C/CC/C=C(\C)CC/C=C(\C)CCC[N+](C)(C)[O-]` the T/C (dose: 60.0 mg/kg/injection, schedule: Q01DX005 (ip), vehicle: saline) was 101 % of control, the T/C (dose: 120.0 mg/kg/injection, schedule: Q01DX005 (ip), vehicle: saline) was 101 % of control and the T/C (dose: 240.0 mg/kg/injection, schedule: Q01DX005 (ip), vehicle: saline) was 99 % of control.

In the case of `CCOc1ccc(N=Nc2c(-c3ccccc3)nn(C(=S)S)c2-c2ccccc2)cc1`, the T/C [1] is reported as 88 % of control, the T/C [2] is reported as 92 % of control and the T/C [3] is reported as 90 % of control.

With `O=C1NC2C3CC(c4ccccc43)C12` (stereo not drawn) the T/C [4] was 105 % of control, the T/C [5] was 109 % of control and the T/C [6] was 108 % of control.

For `COc1cc(C=NC2CCCCC2)cc(OC)c1OC`, the T/C (dose: 100.0 mg/kg/injection, schedule: Q01DX001 (ip), vehicle: saline) was 104 % of control, the T/C (dose: 200.0 mg/kg/injection, schedule: Q01DX001 (ip), vehicle: saline) was 101 % of control and the T/C (dose: 400.0 mg/kg/injection, schedule: Q01DX001 (ip), vehicle: saline) was 99 % of control.

`CC1=C(C(=O)/C=C/c2ccccc2)C(=O)c2ccccc2C1=O` was tested, and the T/C [1] was 95 % of control, the T/C [2] was 87 % of control and the T/C [3] was 105 % of control.

In the case of `CC1OC2CC(=O)OC2C2=C1C(=O)c1cc(-c3cc(O)c4c(c3)C(=O)C3=C(C4=O)C4OC(=O)CC4OC3C)cc(O)c1C2=O` (stereo not drawn), the T/C (dose: 0.95 mg/kg/injection, schedule: Q01DX005 (ip), vehicle: DMSO) is reported as 98 % of control, the T/C (dose: 1.9 mg/kg/injection, schedule: Q01DX005 (ip), vehicle: DMSO) is reported as 107 % of control and the T/C (dose: 3.8 mg/kg/injection, schedule: Q01DX005 (ip), vehicle: DMSO) is reported as 99 % of control.

With `C=CC(C)(C)c1cc(O)c(OC)cc1O` the T/C [7] was 95 % of control, the T/C [8] was 102 % of control and the T/C [9] was 100 % of control.

For `COc1cc(O)c(/C=N\O)c(OC)c1`, the T/C [4] was 96 % of control, the T/C [5] was 98 % of control and the T/C [6] was 98 % of control.

For `CNc1ccccc1C(=O)NN=C1c2ccccc2-c2ccccc21`, the T/C [10] was 100 % of control, the T/C [11] was 106 % of control and the T/C [12] was 99 % of control.

For `CCC1(C)C(=O)C(C)(CC)C1=O` (stereo not drawn), the T/C [4] was 105 % of control, the T/C [5] was 107 % of control and the T/C [6] was 116 % of control.

With `CCOC(=O)c1ccc(NN=NCCF)cc1` the T/C (dose: 6.25 mg/kg/injection, schedule: Q01DX005 (ip), vehicle: distilled water + Tween-80) was 160 % of control, the T/C (dose: 12.5 mg/kg/injection, schedule: Q01DX005 (ip), vehicle: distilled water + Tween-80) was 252 % of control and the T/C (dose: 25.0 mg/kg/injection, schedule: Q01DX005 (ip), vehicle: distilled water + Tween-80) was 256 % of control and 275 % of control.

`CCc1cc(-n2c3c(CC)c(=O)c(CC)cc-3nc3ccccc32)cc(CC)c1O` was tested, and the T/C [13] was 98 % of control, the T/C [14] was 109 % of control and the T/C [15] was 105 % of control.

`CC(=O)C(C)(CC#N)C(CC=O)CCC#N` (stereo not drawn) was tested, and the T/C [4] was 111 % of control.

With `CCC(C(=O)O)C(=O)O.[NH-]CC1CCCC[N-]1.[Pt+2]` the T/C (dose: 25.0 mg/kg/injection, schedule: Q01DX005 (ip), vehicle: saline) was 161 % of control, the T/C [13] was 161 % of control and the T/C (dose: 50.0 mg/kg/injection, schedule: Q01DX005 (ip), vehicle: saline) was 217 % of control. The T/C [10] was 202 % of control, the T/C [14] was 189 % of control and the T/C (dose: 100.0 mg/kg/injection, schedule: Q01DX005 (ip), vehicle: saline) was 243 % of control and 267 % of control. The T/C [15] was 252 % of control, the T/C (dose: 125.0 mg/kg/injection, schedule: Q01DX001 (ip), vehicle: saline) was 161 % of control and the T/C (dose: 250.0 mg/kg/injection, schedule: Q01DX001 (ip), vehicle: saline) was 191 % of control. The T/C (dose: 500.0 mg/kg/injection, schedule: Q01DX001 (ip), vehicle: saline) was 173 % of control and 198 % of control.

For `NC(CC(=O)c1ccc(O)cc1)C(=O)O` (stereo not drawn), the T/C (dose: 50.0 mg/kg/injection, schedule: Q01DX009 (ip), vehicle: Klucel (hydroxypropylcellulose) (HPC)) was 99 % of control, the T/C (dose: 100.0 mg/kg/injection, schedule: Q01DX009 (ip), vehicle: Klucel (hydroxypropylcellulose) (HPC)) was 100 % of control and the T/C (dose: 200.0 mg/kg/injection, schedule: Q01DX009 (ip), vehicle: Klucel (hydroxypropylcellulose) (HPC)) was 92 % of control.

`O=C1NC(=O)C2(CC3CCCC(C2)N3)N1` (stereo not drawn) was tested, and the T/C (dose: 100.0 mg/kg/injection, schedule: Q04DX003 (ip), vehicle: water) was 101 % of control, the T/C (dose: 200.0 mg/kg/injection, schedule: Q04DX003 (ip), vehicle: water) was 99 % of control and the T/C (dose: 400.0 mg/kg/injection, schedule: Q04DX003 (ip), vehicle: water) was 103 % of control.

For `CCOC(=O)C/C(C)=C1/N=C(c2ccccc2)OC1=O`, the T/C [4] was 91 % of control, the T/C [5] was 91 % of control and the T/C [6] was 92 % of control.

With `Fc1ccc(CSC(=S)Nc2ccc(Br)cc2)cc1` the T/C (dose: 50.0 mg/kg/injection, schedule: Q01DX009 (ip), vehicle: suspension in saline) was 100 % of control, the T/C (dose: 100.0 mg/kg/injection, schedule: Q01DX009 (ip), vehicle: suspension in saline) was 108 % of control and the T/C (dose: 200.0 mg/kg/injection, schedule: Q01DX009 (ip), vehicle: suspension in saline) was 101 % of control.

In the case of `CCCCCCCC/C=C\CCCCCCCC(=O)OC`, the T/C (dose: 177.0 mg/kg/injection, schedule: Q01DX009 (ip), vehicle: saline with Tween-80) is reported as 109 % of control, the T/C (dose: 266.0 mg/kg/injection, schedule: Q01DX009 (ip), vehicle: saline with Tween-80) is reported as 116 % of control and the T/C (dose: 400.0 mg/kg/injection, schedule: Q01DX009 (ip), vehicle: saline with Tween-80) is reported as 106 % of control. For the same molecule, the T/C (dose: 600.0 mg/kg/injection, schedule: Q01DX009 (ip), vehicle: saline with Tween-80) was 107 % of control.

For `O=C(Cc1ccccc1)C(Br)C(Br)c1ccccc1` (stereo not drawn), the T/C (dose: 6.25 mg/kg/injection, schedule: Q01DX009 (ip), vehicle: saline with Tween-80) was 100 % of control, the T/C (dose: 12.5 mg/kg/injection, schedule: Q01DX009 (ip), vehicle: saline with Tween-80) was 118 % of control and the T/C [16] was 113 % of control.

For `COc1cc2c(cc1OC)CC[N+](Cc1ccc([N+](=O)[O-])cc1)=C2`, the T/C (dose: 12.5 mg/kg/injection, schedule: Q01DX001 (ip), vehicle: saline + alcohol) was 98 % of control, the T/C (dose: 25.0 mg/kg/injection, schedule: Q01DX001 (ip), vehicle: saline + alcohol) was 95 % of control and the T/C (dose: 50.0 mg/kg/injection, schedule: Q01DX001 (ip), vehicle: saline + alcohol) was 95 % of control.

For `C=C1[C@@]2(O)CCCC[C@@H]2C[N+]1(C)C`, the T/C [14] was 91 % of control, the T/C [15] was 90 % of control and the T/C (dose: 200.0 mg/kg/injection, schedule: Q01DX009 (ip), vehicle: saline) was 95 % of control.

With `COc1cc(-c2nn(CN3CCOCC3)c(=S)n2C)cc(OC)c1OC` the T/C [7] was 103 % of control, the T/C [8] was 103 % of control and the T/C [9] was 100 % of control.

With `O=C(O)C(Cc1ccc(F)cc1)NC(=O)C(F)(F)F` (stereo not drawn) the T/C [10] was 95 % of control, the T/C [11] was 95 % of control and the T/C [12] was 100 % of control.

For `CCCCOC(=O)CNCC(=O)OCCCC`, the T/C [4] was 100 % of control, the T/C [5] was 101 % of control and the T/C [6] was 104 % of control.

In the case of `O=NN(CCF)C(=O)Oc1ccc([N+](=O)[O-])cc1`, the T/C (dose: 12.5 mg/kg/injection, schedule: Q01DX001 (ip), vehicle: Klucel (hydroxypropylcellulose) (HPC)) is reported as 114 % of control and the T/C (dose: 25.0 mg/kg/injection, schedule: Q01DX001 (ip), vehicle: Klucel (hydroxypropylcellulose) (HPC)) is reported as 112 % of control.

`CCOC(=O)Nc1nccs1` was tested, and the T/C [16] was 108 % of control, the T/C [10] was 103 % of control and the T/C [11] was 102 % of control. For the same molecule, the T/C [12] was 108 % of control.
